Key:
[1] = molecular target: Trypsin (Sus scrofa, UniProt P00761); experiment: Inhibition constant (Ki) against trypsin enzyme for the conversion of water-soluble compound to fluorescent oil-soluble compound
[2] = molecular target: Leukocyte elastase (Homo sapiens); experiment: Inhibition constant (Ki) against human leukocyte elastase.
[3] = molecular target: Leukocyte elastase (Homo sapiens); experiment: Inhibition constant (Ki) when mixed with p-nitroanilide against human leukocyte elastase for the conversion of water-soluble compound to fluorescent oil-soluble compound

Trypsin, sequence (P00761 whole entry): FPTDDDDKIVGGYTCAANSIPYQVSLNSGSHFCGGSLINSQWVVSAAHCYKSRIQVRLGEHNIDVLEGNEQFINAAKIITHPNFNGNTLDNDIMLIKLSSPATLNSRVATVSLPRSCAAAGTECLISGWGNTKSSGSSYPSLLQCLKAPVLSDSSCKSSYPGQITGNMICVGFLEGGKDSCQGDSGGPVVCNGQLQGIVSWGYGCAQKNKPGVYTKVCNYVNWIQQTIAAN

Row | SMILES | Ki [1] [µM] | Ki [2] [µM] | Ki [3] [µM]
1 | O=C1C=CC(=O)N1c1ccccc1 | ~800 |  | 
2 | CC(NC(=O)[C@H](C)NC(=O)c1cccc2c1Oc1c(C(=O)NC(C)C(=O)N[C@@H](C)C(=O)O)cccc1C2(C)C)C(=O)O (single isomer, unassigned) |  | 248 | 
3 | CC(NC(=O)[C@H](C)NC(=O)c1cccc2c1Oc1c(C(=O)NC(C(=O)O)C(C)C)cccc1C2(C)C)C(=O)O (single isomer, unassigned) |  | 86 | 0.128
4 | CC(C)C(NC(=O)c1cccc2c1Oc1c(C(=O)N[C@H](C(=O)O)C(C)C)cccc1C2(C)C)C(=O)O (single isomer, unassigned) |  | 515 | 

Reference: ChEMBL document CHEMBL1131831, “A rapid method to identify exo-protease inhibitors” (Bioorg Med Chem Lett, 1999)
